Assay results as given in US20260015354A1, “Solid State Forms of Ensifentrine” (Cipla Limited, priority 2022, published 2026).
In brackets after ≈: the same amount, converted by molar mass.

Test: Comparative solubility of crystalline forms of Ensifentrine at pH 3
Type: physicochemical
Settings: for solubility compared to Form I: comparison in words
From the text: The solubility of Form C1 and Form I disclosed in U.S. Pat. No. 9,062,047 at pH 3 were compared.
The solubility of Form C3 and Form I disclosed in U.S. Pat. No. 9,062,047 at pH 3 was compared.

solubility compared to Form I | solubility (time 15 min) | solubility (time 30 min) | solubility (time 60 min) | solubility (time 120 min) | solubility (time 240 min) | Structure (SMILES)
better solubility compared to Form I |  |  |  |  |  | COc1cc2c(cc1OC)-c1c/c(=N\c3c(C)cc(C)cc3C)n(CCNC(N)=O)c(=O)n1CC2 [Form C1]
better solubility compared to Form I | 2110 µg/mL (≈ 4.42 mM) | 1960 µg/mL (≈ 4.1 mM) | 2000 µg/mL (≈ 4.19 mM) | 2050 µg/mL (≈ 4.29 mM) | 2130 µg/mL (≈ 4.46 mM) | COc1cc2c(cc1OC)-c1c/c(=N\c3c(C)cc(C)cc3C)n(CCNC(N)=O)c(=O)n1CC2 [Form C3]
 | 1380 µg/mL (≈ 2.89 mM) | 1390 µg/mL (≈ 2.91 mM) | 1310 µg/mL (≈ 2.74 mM) | 1350 µg/mL (≈ 2.83 mM) | 1390 µg/mL (≈ 2.91 mM) | COc1cc2c(cc1OC)-c1c/c(=N\c3c(C)cc(C)cc3C)n(CCNC(N)=O)c(=O)n1CC2 [Form I, reference compound]
